# Measured values from patent US20050131051A1, “2-3-disubstituted quinuclidiness as modulators of monoamine transporters and theraperutic and diagnostic methods based thereon” (priority 2000, published 2005).
# Like-named read-outs stand apart in the source and are kept apart here.
# What was measured:
# [1] = target: T1, dopamine transporter (DAT) (Rattus norvegicus, UniProt P23977); experiment: Synaptosomal uptake of [3H]DA (inhibition of DA reuptake); type: biochemical
# T1 construct: P2 membrane pellets were prepared by differential centrifugation from rat striatum; from tissue; host or cells: rat striatum (P2 membrane pellet / P2 synaptosomes)
# T1 sequence (P23977 whole entry): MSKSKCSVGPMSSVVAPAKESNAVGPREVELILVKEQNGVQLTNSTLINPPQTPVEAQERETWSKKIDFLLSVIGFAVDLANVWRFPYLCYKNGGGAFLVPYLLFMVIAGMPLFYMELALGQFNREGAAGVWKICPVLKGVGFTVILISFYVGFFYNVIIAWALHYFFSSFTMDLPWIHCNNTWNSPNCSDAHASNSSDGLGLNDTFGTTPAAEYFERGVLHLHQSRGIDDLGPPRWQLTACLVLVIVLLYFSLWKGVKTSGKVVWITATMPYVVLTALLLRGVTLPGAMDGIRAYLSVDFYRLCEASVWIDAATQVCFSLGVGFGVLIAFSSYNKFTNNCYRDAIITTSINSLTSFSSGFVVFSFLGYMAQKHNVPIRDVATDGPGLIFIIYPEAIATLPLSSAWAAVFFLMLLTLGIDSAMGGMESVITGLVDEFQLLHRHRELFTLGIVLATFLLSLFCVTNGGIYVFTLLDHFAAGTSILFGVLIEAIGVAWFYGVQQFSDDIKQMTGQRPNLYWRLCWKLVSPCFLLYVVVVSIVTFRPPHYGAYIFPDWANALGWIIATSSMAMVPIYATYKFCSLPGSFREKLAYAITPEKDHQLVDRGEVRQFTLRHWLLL
# Protocol: The effect of candidate compounds in antagonizing dopamine high-affinity uptake was determined using a method previously employed. For [^3H]DA uptake, freshly dissected rat striata were homogenized with a Teflon-glass pestle in ice-cold 0.32 M sucrose and centrifuged for 10 min at 1000×g. The supernatant was centrifuged at 17,500×g for 20 min. This P2 synaptosomal pellet was resuspended in 30 volumes of ice-cold modified KRH buffer. An aliquot of the synaptosomal suspension was preincubated with the buffer and drug for 30 min at 37° C., and uptake initiated by the addition of [^3H]dopamine (5 nM, final conc.). After 5 min, uptake was terminated by adding 5 ml of cold buffer containing glucosamine as a substitute for NaCl and then finally by rapid vacuum filtration over GF-C glass fiber filters, followed by washing with two 5 ml volumes of ice-cold, sodium-free buffer. Radioactivity retained on the filters was determined by liquid scintillation spectrometry. […] It is identical to that calculated by subtracting the mean of identical tubes incubated at 0° C.
# (§1) IC50 values were determined by a computer assisted, iterative fit to a four-parameter sigmoidal equation (ALLFIT). These values were then converted to Ki values according to the Cheng-Prusoff equation assuming classical competitive inhibition. Preincubation of the drug and synaptosomes at 37° C. for 30 min was used to approximate equilibrium conditions as necessary to satisfy the requirements of the Cheng-Prusoff equation.
# (§2) The effect of candidate compounds in antagonizing dopamine high-affinity uptake was determined using a method previously employed. For [^3H]DA uptake, dissected rat striata were homogenized with a Teflon-glass pestle in ice-cold 0.32 M sucrose and centrifuged for 10 mm at 1000×g. The supernatant was centrifuged at 17,500×g for 20 mm. This P2 synaptosomal pellet was resuspended in 30 volumes of ice-cold modified KRH buffer. An aliquot of the synaptosomal suspension was preincubated with the buffer and drug for 30 mm at 37° C., and uptake initiated by the addition of [^3H]dopamine (5 nM, final conc.). After 5 mm, uptake was terminated by adding 5 ml of cold buffer containing glucosamine as a substitute for NaCl and then finally by rapid vacuum filtration over GF-C glass fiber filters, followed by washing with two 5 ml volumes of ice-cold, sodium-free buffer. Radioactivity retained on the filters was determined by liquid scintillation spectrometry. […] Also, specific uptake of [^3H]5-HT and [^3H]NE were defined in the presence of 10 uM fluoxetine and 1 uM desipramine, respectively.
# serotonin transporter = target: T2, serotonin transporter (Rattus norvegicus, UniProt P31652); experiment: Synaptosomal uptake of [3H]5-HT; type: biochemical
# T2 construct: using synaptosomes prepared from rat midbrain and parietal/occipital cortex, respectively; from tissue; host or cells: rat midbrain synaptosomes
# T2 sequence (P31652 whole entry): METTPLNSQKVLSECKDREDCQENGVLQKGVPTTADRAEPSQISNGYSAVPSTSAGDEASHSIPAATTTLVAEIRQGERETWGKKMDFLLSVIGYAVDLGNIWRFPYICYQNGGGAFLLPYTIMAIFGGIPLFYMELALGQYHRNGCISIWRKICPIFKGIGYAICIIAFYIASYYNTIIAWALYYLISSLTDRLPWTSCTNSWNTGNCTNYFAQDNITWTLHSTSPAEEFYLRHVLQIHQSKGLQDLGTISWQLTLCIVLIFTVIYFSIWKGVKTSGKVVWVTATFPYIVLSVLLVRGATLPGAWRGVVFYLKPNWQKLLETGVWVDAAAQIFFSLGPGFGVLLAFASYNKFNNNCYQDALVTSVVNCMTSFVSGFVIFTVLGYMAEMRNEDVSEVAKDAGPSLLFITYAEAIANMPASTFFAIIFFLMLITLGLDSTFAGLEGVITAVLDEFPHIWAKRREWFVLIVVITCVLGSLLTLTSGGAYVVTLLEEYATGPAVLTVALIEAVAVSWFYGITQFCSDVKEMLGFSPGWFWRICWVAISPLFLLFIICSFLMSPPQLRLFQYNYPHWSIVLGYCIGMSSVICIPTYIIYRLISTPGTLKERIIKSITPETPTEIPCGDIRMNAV
# Protocol: as §1, §2
# [2] = target: T1, dopamine transporter (DAT); experiment: [3H]mazindol binding assay; details: for Ki: rat striatum membranes, mean ± standard error or range of 2-3 experiments
# Protocol: Binding assays were conducted as previously described. Briefly conventional P2 membrane pellets were prepared by differential centrifugation from rat striatum. The P2 pellet was resuspended in Krebs-Ringer-HEPES (KRH) buffer consisting of (in mM): NaCl (125), KCl (4.8), MgSO4 (1.2), CaCl2 (1.3), KH2PO4 (1.2), glucose (5.6), nialamide (0.01), and HEPES (25) (pH 7.4) and centrifuged again. Finally, the pellet was resuspended in 30 volumes of buffer, pelleted at 15,000×g and frozen at −80° C. until used. The striatal homogenates were thawed by resuspension in the buffer described above at 75-125 µg protein/ml and incubated with [^3H]mazindol, with or without competing drugs, for 60 min in a 4° C. cold room. […] The bound and free [^3H]mazindol were separated by rapid vacuum filtration over Whatman GF/C filters, using a Brandel M24R cell harvester, followed by two washes with 5 ml of cold buffer. Radioactivity on the filters was then extracted by allowing to sit over night with 5 ml of scintillant. The vials were vortexed and counted. IC50 values were determined using the computer program LIGAND.
# For binding assays, caudate nuclei were homogenized using a polytron in 0.32 M sucrose and centrifuged for 10 mm at 1000×g. The supernatant was resuspended in cold sucrose and centrifuged at 17,500×g for 20 mm. The pellet was resuspended in Krebs-Ringer-HEPES (KRH) buffer consisting of (in mM): NaCl (125), KCl (4.8), MgSO4 (1.2), CaCl2 (1.3), KH2PO4(1.2), glucose (5.6), nialamide (0.01), and HEPES (25) (pH 7.4) and centrifuged again. Finally, the pellet was resuspended in 30 volumes of buffer, pelleted at 15,000×g and frozen at −80° C. until used. The striatal homogenates were thawed by resuspension in the buffer described above at 75-125 μg protein/ml and incubated with [^3H]mazindol, with or without competing drugs, for 60 mm in a 4° C. cold room. […] The bound and free [^3H]mazindol were separated by rapid vacuum filtration over Whatman GF/C filters, using a Brandel M24R cell harvester, followed by two washes with 5 ml of cold buffer. Radioactivity on the filters was then extracted by allowing to sit over night with 5 ml of scintillant. The vials were vortexed and counted. IC50 values were determined using the computer program LIGAND.
# [3] = target: T3, norepinephrine transporter (Rattus norvegicus, UniProt Q63380); experiment: Synaptosomal uptake of [3H]NE; type: biochemical
# T3 construct: using synaptosomes prepared from rat midbrain and parietal/occipital cortex, respectively; from tissue; host or cells: rat parietal/occipital cortex synaptosomes
# T3 sequence (Q63380 1-617): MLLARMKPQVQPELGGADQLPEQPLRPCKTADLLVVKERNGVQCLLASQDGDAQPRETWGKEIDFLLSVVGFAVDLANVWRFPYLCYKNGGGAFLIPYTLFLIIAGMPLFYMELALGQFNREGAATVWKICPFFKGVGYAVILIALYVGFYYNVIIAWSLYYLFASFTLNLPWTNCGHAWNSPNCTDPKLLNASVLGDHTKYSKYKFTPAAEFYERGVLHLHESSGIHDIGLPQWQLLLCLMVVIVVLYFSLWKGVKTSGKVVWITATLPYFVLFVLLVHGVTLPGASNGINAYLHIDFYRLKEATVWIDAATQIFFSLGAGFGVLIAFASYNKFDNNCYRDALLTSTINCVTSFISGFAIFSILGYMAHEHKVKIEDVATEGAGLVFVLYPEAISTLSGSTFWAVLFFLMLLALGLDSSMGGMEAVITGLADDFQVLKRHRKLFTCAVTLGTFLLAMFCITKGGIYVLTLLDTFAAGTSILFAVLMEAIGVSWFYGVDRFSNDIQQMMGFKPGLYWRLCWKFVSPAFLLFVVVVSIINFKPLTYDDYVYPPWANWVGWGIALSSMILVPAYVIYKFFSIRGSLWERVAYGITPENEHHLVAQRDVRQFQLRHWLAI
# Protocol: as §1, §2
# DAT = DAT (Homo sapiens, UniProt Q01959); details: cited from earlier work
# Chain of DAT (Q01959 whole entry, species assumed): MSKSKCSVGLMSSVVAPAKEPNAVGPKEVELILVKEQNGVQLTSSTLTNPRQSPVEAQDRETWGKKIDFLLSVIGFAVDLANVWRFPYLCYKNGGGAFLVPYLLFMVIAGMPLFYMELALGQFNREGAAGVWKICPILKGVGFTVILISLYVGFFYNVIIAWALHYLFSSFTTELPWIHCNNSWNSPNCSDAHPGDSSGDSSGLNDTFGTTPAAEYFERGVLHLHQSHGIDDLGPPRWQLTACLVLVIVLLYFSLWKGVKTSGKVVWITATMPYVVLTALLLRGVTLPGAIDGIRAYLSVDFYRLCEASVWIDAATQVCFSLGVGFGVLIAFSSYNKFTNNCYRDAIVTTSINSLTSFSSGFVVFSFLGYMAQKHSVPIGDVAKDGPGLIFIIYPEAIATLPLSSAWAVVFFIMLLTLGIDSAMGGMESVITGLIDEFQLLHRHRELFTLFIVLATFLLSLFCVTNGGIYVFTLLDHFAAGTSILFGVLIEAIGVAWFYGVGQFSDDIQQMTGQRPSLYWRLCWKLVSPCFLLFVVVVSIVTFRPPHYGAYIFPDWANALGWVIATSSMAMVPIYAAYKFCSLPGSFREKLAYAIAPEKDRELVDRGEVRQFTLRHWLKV
# [4] = Ki (nM) DA Reuptake, rat striatal synaptosomes, mean ± standard error or range of 2-3 experiments
# [5] = Ki (nM) SER, synaptosomes from rat midbrain, mean ± standard error or range of 2-3 experiments
# [6] = Ki (nM) NE, synaptosomes from rat parietal/occipital cortex, mean ± standard error or range of 2-3 experiments
# [7] = read-out: Ki (nM) [3H] Mazindol Binding
# [8] = binding affinity and DA reuptake not distinguished in the sentence
smiles,measurement,setting,value
"C=CCCC1C(=O)C2CCN1CC2 (centres unmarked) [Compound 7, 2-But-3-enylquinuclidin-3-one]",Ki,[1]; [4],> 10000 nM
same,measurable activity in inhibition of DA reuptake,[1]; at 10 µM,did not show any measurable activity
"CCCCC1C(c2ccc(C)cc2)C2CCN1CC2 (racemic) [(±)-13, 2-Butyl-3-(4-methylphenyl)quinuclidine]",Ki,serotonin transporter; [5],77 ± 7 nM
same,Ki,[2]; Ki (nM) [3H] Mazindol Binding,20 nM
same,fold improvement over 13 (so in the source) in binding activity,[2]; ratio of Ki values,11 fold
same,fold improvement over the lead compound (3) in binding affinity,[2]; ratio of Ki values,365 fold
same,Ki,[3]; [6],62 ± 5 nM
same,Ki,[1]; [4],49 nM
same,fold improvement over 13 (so in the source) in uptake activity,[1]; ratio of Ki values,5 fold
same,fold improvement over the lead compound (3) in inhibition of DA reuptake,[1]; ratio of Ki values,181 fold
"COC(=O)[C@H]1[C@@H](c2ccccc2)C[C@@H]2CC[C@H]1N2C [2 (WIN 35065-2), WIN 35065-2]","binding affinity at the DAT site, times better than cocaine",DAT,4 times
"CCCCC1C(c2ccc(C)cc2)C2CCN1CC2 (single isomer, unassigned; (+)) [(+)-13, 2-Butyl-3-(4-methylphenyl)quinuclidine]",Ki,serotonin transporter,508 ± 22 nM
same,Ki,[2]; [7],343 nM
same,Ki,[3],164 ± 47 nM
same,Ki,[1]; [4],354 nM
"CCCCC1C(c2ccccc2)C2CCN1CC2 (racemic) [(±)-12, 2-Butyl-3-phenylquinuclidine]",Ki,serotonin transporter,655 ± 21 nM
same,times more potent than cocaine in binding affinity,[2],as potent as cocaine
same,Ki,[2]; [7],210 nM
same,fold improvement over the lead compound (3) in binding affinity,[2]; ratio of Ki values,31 fold
same,Ki,[3],136 ± 11 nM
same,times more potent than cocaine in inhibition of DA reuptake,[1],as potent as cocaine
same,Ki,[1]; [4],237 nM
same,fold improvement over the lead compound (3) in inhibition of DA reuptake,[1]; ratio of Ki values,32 fold
"C=CCCC1N2CCC(CC2)C1(O)c1ccccc1 (centres unmarked) [Compound 8, 2-But-3-enyl-3-phenylquinuclidin-3-ol]",Ki,"[1]; Ki value (text, refers to Table 1 DA reuptake)",31200 nM
same,fold less potent than 12,"[1]; ratio of Ki values, DA reuptake",131 fold
"CCCCC1C(c2ccc(C)cc2)C2CCN1CC2 (single isomer, unassigned; (-)) [(−)-13, 2-Butyl-3-(4-methylphenyl)quinuclidine]",Ki,serotonin transporter; [5],26 ± 3 nM
same,times more potent than cocaine in binding affinity,[2],17 times
same,Ki,[2]; Ki (nM) [3H] Mazindol Binding,14 nM
same,fold improvement over the lead compound (3) in binding affinity,[2]; ratio of Ki values,519 fold
same,Ki,[3]; [6],15 ± 3 nM
same,times more potent than cocaine in inhibition of DA reuptake,[1],9 times
same,Ki,[1]; [4],32 nM
same,fold more potent than (±)-13,[1]; [8],approximately 2 fold
same,fold more potent than its enantiomer (+)-13,[1]; [8],11 fold
same,fold improvement over the lead compound (3) in inhibition of DA reuptake,[1]; ratio of Ki values,278 fold
